Laboratory results reported in PubChem BioAssay AID1996.
Values after ≈ are worked out from the molar mass of the structure shown.

Conditions: buffer; pH 7.4; 200.0 µM

Row | SMILES | solubility kinetic
1 | CCC(C)c1ccc(NC(=S)N2CCN(c3ccccn3)CC2)cc1 (stereo not given) | 2.6 µg/mL (≈ 7.33 µM)
2 | COc1ccc(C(=O)Nc2nc(-c3ccccn3)cs2)cc1S(=O)(=O)N1CCOCC1 | 6.8 µg/mL (≈ 14.8 µM)
3 | COc1ccc(S(=O)(=O)Nc2ccc(C)cn2)cc1 | 25.4 µg/mL (≈ 91.3 µM)
4 | CCCC(=O)Nc1ccc2c(c1)nc(CCNC(=O)c1ccco1)n2C | > 53.2 µg/mL
5 | O=c1[nH]c(/C=C\c2ccccc2F)nc(O)c1[N+](=O)[O-] | > 41.6 µg/mL
6 | CC(=O)N1CCN(S(=O)(=O)c2cccc(C(=O)NCc3ccc(F)cc3)c2)CC1 | > 62.9 µg/mL
7 | O=S(=O)(Nc1ccccc1)c1cccc2nsnc12 | 39.8 µg/mL (≈ 137 µM)
8 | CN(C)c1cc(-c2ccc(Br)cc2)oc(=O)c1Cl | 1.1 µg/mL (≈ 3.35 µM)
9 | Cc1cccc(NS(=O)(=O)c2cccc([N+](=O)[O-])c2)n1 | > 44 µg/mL
10 | O=C(CSc1nc2ccccc2[nH]1)NCc1ccccc1 | 33.7 µg/mL (≈ 113 µM)
11 | Cc1ccc(NC(=O)C(C)OC(=O)CSc2ccccc2)cc1 (stereo not given) | > 49.4 µg/mL
12 | CC(=O)Nc1cccc(NC(=O)CCNC(=O)c2ccccc2)c1 | > 48.8 µg/mL
13 | O=C(c1cccc(Oc2ccc([N+](=O)[O-])cc2)c1)N1CCOCC1 | > 49.2 µg/mL
14 | C=C(C)c1cccc(C(C)(C)NC(=O)NCc2cccnc2)c1 | > 46.4 µg/mL
15 | CC(N=Cc1c(O)c2ccccc2oc1=O)C(=O)O (stereo not given) | > 39.2 µg/mL
16 | COc1ccccc1NC(=O)COC(=O)C1C2CC3OC(=O)C1C3C2 (stereo not given) | > 51.8 µg/mL
17 | O=c1nc(SCc2c(F)cccc2Cl)nc(-c2ccccc2)[nH]1 | 4.1 µg/mL (≈ 11.8 µM)
18 | COc1ccc(N2CC(C(=O)N3CCN(C)CC3)CC2=O)cc1 (stereo not given) | 43.8 µg/mL (≈ 138 µM)
19 | COCCNC(=S)NC(=O)c1ccc(C(C)(C)C)cc1 | 14 µg/mL (≈ 47.6 µM)
20 | CC1CCC(NC(=O)CSc2nncs2)CC1 (stereo not given) | > 40.7 µg/mL
21 | O=C(O)C(Cc1ccc(Cl)cc1)Sc1nc2ccccc2[nH]1 (stereo not given) | 42.3 µg/mL (≈ 127 µM)
22 | COC(=O)c1sc(NC(=O)c2c(-c3ccccc3)noc2C)nc1C | 0.8 µg/mL (≈ 2.24 µM)
23 | CC(NCC(=O)NCC(=O)Nc1ccc(F)cc1)c1cccc(C(F)(F)F)c1 (stereo not given) | > 59.6 µg/mL
24 | CC(=O)N1CCN(C(=O)c2cc3ccccc3o2)CC1 | > 40.8 µg/mL

Row | SMILES | solubility kinetic
25 | O=C(c1ccccc1F)n1c2c(c3ccccc31)CCCC2 | 0.8 µg/mL (≈ 2.73 µM)
26 | O=C(CSCc1ccccc1)Nc1ccccc1 | > 38.6 µg/mL
27 | Cc1ccnc(NC(=O)CNC(=O)c2ccc3c(c2)OCO3)c1 | 22.3 µg/mL (≈ 71.2 µM)
28 | CCc1cc2c3c(c1)C(C)CC(C)(C)N3C(=O)/C2=C1\SC(=O)NC1=O (stereo not given) | 1.1 µg/mL (≈ 3.09 µM)
29 | C=CC[N+]1(C)C2CCC1CC(O)C2.[Br-] (stereo not given) | > 39.3 µg/mL
30 | CCCC(=O)Nc1ccc(C=C(C(C)=O)C(C)=O)cc1 | > 41 µg/mL
31 | O=C(COc1ccc2ccc(=O)oc2c1)NC1CCS(=O)(=O)C1 (stereo not given) | > 50.6 µg/mL
32 | CCOC(=O)c1ccc(NC(=S)NCc2cccnc2)cc1 | > 47.3 µg/mL
33 | Cc1ccccc1C(=O)OC1CCN(C)CC1.Cl | > 40.5 µg/mL
34 | CS(=O)(=O)N(CC(=O)NC1CCCC1)C1CCCCC1 | > 45.4 µg/mL
35 | CNC(=O)NC(=O)CN1C(=O)NC2(CCOc3ccccc32)C1=O (stereo not given) | > 49.8 µg/mL
36 | COc1ccc(OCC(O)CN2CCNCC2)cc1.Cl (stereo not given) | 49.5 µg/mL
37 | CCCC(=O)c1c[nH]c(C(=O)N2CCOCC2)c1 | > 37.5 µg/mL
38 | O=C(NCCc1ccccc1)C1CC(=O)N(C2CCCCC2)C1 (stereo not given) | > 47.2 µg/mL
39 | O=C(CSc1cccc[n+]1[O-])c1ccc(Cl)cc1 | 39.9 µg/mL (≈ 143 µM)
40 | O=C1CN(C(=O)COC(=O)CCc2ccccc2)c2ccccc2N1 | > 50.8 µg/mL
41 | COc1cccc(/C=C/C(=O)c2cccc([N+](=O)[O-])c2)c1 | 2.4 µg/mL (≈ 8.47 µM)
42 | CCOC(=O)C(C)Sc1nc(N2CCOCC2)c2c(c1C#N)CC(C)(C)OC2 (stereo not given) | 38.8 µg/mL (≈ 95.7 µM)
43 | C=CCCC(=O)N1CCCC(C(=O)c2cccc(OC)c2)C1 (stereo not given) | 40.7 µg/mL (≈ 135 µM)
44 | COc1cc2ccccc2cc1C(=O)Nc1ccncc1 | 38.6 µg/mL (≈ 139 µM)
45 | Cc1ccc(S(=O)(=O)/N=C(/Nc2c(C)cccc2C)c2ccccc2)cc1 | 7.3 µg/mL (≈ 19.3 µM)
46 | Cc1nc(-c2cccs2)sc1C(=O)O | > 33.8 µg/mL
47 | O=C(CNC(=O)C1CCCCC1)Nc1ccc(F)c(Cl)c1 | 8.2 µg/mL (≈ 26.2 µM)
48 | CCCOC(=O)CC1C(=O)NCCN1Cc1cc(OC)cc(OC)c1 (stereo not given) | > 52.6 µg/mL

Row | SMILES | solubility kinetic
49 | Cc1ccc(OCC(=O)Nc2ccncc2)cc1 | 35.1 µg/mL (≈ 145 µM)
50 | CCOc1ccc2c(c1)c(C(C)=O)c(C)n2Cc1ccco1 | < 0.6 µg/mL
51 | Cc1ccc(NC(=O)NC2CCCc3ccccc32)cc1 (stereo not given) | < 0.3 µg/mL
52 | O=C(Cn1c(CO)nc2ccccc21)Nc1ccc2c(c1)OCCCO2 | > 53 µg/mL
53 | Cc1cccc(C)c1N1CCN(C(=O)N2CCOCC2)CC1 | > 45.5 µg/mL
54 | COc1ccc(NC(=O)c2ccc([N+](=O)[O-])o2)cc1 | 23.4 µg/mL (≈ 89.2 µM)
55 | CC(C)(C)c1ccc(SCCc2ccccn2)cc1 | 1.1 µg/mL (≈ 4.05 µM)
56 | O=C(CN1CCOCC1)Nc1ccc([N+](=O)[O-])cc1 | 39.3 µg/mL (≈ 148 µM)
57 | CCc1ccc(NC(=O)C(C)OC(=O)Cc2cc(OC)c(OC)c(OC)c2)cc1 (stereo not given) | > 60.2 µg/mL
58 | CN1CCN(c2nc(Nc3ccccc3)nc(N)c2[N+](=O)[O-])CC1 | 47.5 µg/mL (≈ 144 µM)
59 | O=[N+]([O-])c1cccnc1Oc1ccc(F)cc1 | 31.6 µg/mL (≈ 135 µM)
60 | COc1ccccc1NC(=O)Cc1ccsc1 | > 37.1 µg/mL
61 | CCC(=NC)C1=C(O)CC(c2ccccc2)CC1=O (stereo not given) | > 38.6 µg/mL
62 | COc1cccc(NC(=O)CN2CCCCCC2)c1.Cl | 44.1 µg/mL
63 | O=c1c2ccccc2nc(/C=C/c2ccccc2)n1-c1ccc(O)cc1 | 1.6 µg/mL (≈ 4.7 µM)
64 | Cc1ccc(-n2c(C)nn(CC#N)c2=O)cc1 | > 34.2 µg/mL
65 | COCCn1c(=S)[nH]c2ccccc21 | > 31.2 µg/mL
66 | CCOC(=O)NC(C(Cl)(Cl)Cl)S(=O)(=O)c1ccccc1 (stereo not given) | > 54.1 µg/mL
67 | Cc1cc(NC(=O)C2CC(=O)N(c3ccc(F)cc3)C2)no1 (stereo not given) | > 45.5 µg/mL
68 | CCCN1C(=O)C(O)(C2COC(C)(C)CC2=O)c2ccccc21 (stereo not given) | 33.7 µg/mL (≈ 106 µM)
69 | CCc1cc2c(=O)n(-c3ccccc3)c(SCC(=O)O)nc2s1 | > 52 µg/mL
70 | O=C(COC(=O)/C=C/c1ccc(C(F)(F)F)cc1)NCCC1=CCCCC1 | 4.3 µg/mL (≈ 11.3 µM)
71 | Cc1ccnc(NC(=O)CNC(=O)c2ccco2)c1 | > 38.9 µg/mL
72 | CCOc1ccc2c(c1)C(=O)C(=O)N2CC1COc2ccccc2O1 (stereo not given) | 1.2 µg/mL (≈ 3.54 µM)

Row | SMILES | solubility kinetic
73 | CCn1c(/C=C/c2ccc(O)cc2)nc2ccccc2c1=O | 2.8 µg/mL (≈ 9.58 µM)
74 | CCOC(=O)c1sc(NC(=O)c2sc(C)nc2C)nc1C | 8.7 µg/mL (≈ 26.7 µM)
75 | CC(C)(C)c1ccc(S(=O)(=O)NCc2ccccn2)cc1 | 44.1 µg/mL (≈ 145 µM)
76 | O=C(NCCc1ccccc1)c1cnc2n(c1=O)CCS2 | 45 µg/mL (≈ 149 µM)
77 | CCN(CC)CC(=O)N1c2ccccc2Sc2ccccc21 | > 46.9 µg/mL
78 | CC(CCc1ccccc1)NC(=O)c1ccccc1C(=O)O (stereo not given) | > 44.6 µg/mL
79 | COCc1cc(C)nc(SCc2ccc(F)cc2)c1C#N | 1.1 µg/mL (≈ 3.64 µM)
80 | CCCN1C(=O)CC(=O)N=C1SCC(=O)Nc1ccccc1F | > 50.6 µg/mL
81 | Cc1cc(C(=O)Nc2ccc(F)cc2C)cs1 | 24.4 µg/mL (≈ 97.9 µM)
82 | COC(=O)c1cn(C(=O)c2ccc(F)cc2)c2ccccc12 | < 0.6 µg/mL
83 | O=C(O)c1cc(Cl)nc2ccccc12 | > 31.1 µg/mL
84 | O=C(N/N=C/C1CCCCC1)c1ccccc1-n1cccc1 | > 44.3 µg/mL
85 | COCCOC(=O)C1=C(C)NC(=O)NC1c1cccc(F)c1 (stereo not given) | > 46.2 µg/mL
86 | CC1(C(=O)Nc2ccc3c(c2)OCO3)CC1(Cl)Cl (stereo not given) | > 43.2 µg/mL
87 | Cc1cccc(OCC(=O)Nc2nccs2)c1C | 5.1 µg/mL (≈ 19.4 µM)
88 | N=c1c2c3c(sc2ncn1N)CCCC3 | > 33 µg/mL
89 | Cc1cc(C)c(S(=O)(=O)N2CCN(C3CC(=O)N(c4ccccc4Cl)C3=O)CC2)c(C)c1 (stereo not given) | 16.7 µg/mL (≈ 35.1 µM)
90 | CC(=O)Cc1nsc(Nc2ccc(F)cc2)n1 | 33.2 µg/mL (≈ 132 µM)
91 | O=C(NC1CCCc2ccccc21)c1ccc(F)cc1F (stereo not given) | 10.9 µg/mL (≈ 37.9 µM)
92 | CC(C)[C@H](NC(=O)c1cccc(S(=O)(=O)N2CCOCC2)c1)C(=O)NCc1ccc(F)cc1 | 8 µg/mL (≈ 16.8 µM)
93 | CCOC(=O)c1ccc(N2C(=O)CC(C)(CC)CC2=O)cc1 | > 45.5 µg/mL
94 | Cc1ccc(N2CCN(C(=O)c3cccs3)CC2)c(C)c1 | 2.3 µg/mL (≈ 7.66 µM)
95 | N#CCOC(=O)c1c2c(nc3ccccc13)CCC2 | 30.1 µg/mL (≈ 119 µM)
96 | COC(=O)c1cccc(NC(=O)CCNC(=O)c2ccco2)c1 | > 47.4 µg/mL

Row | SMILES | solubility kinetic
97 | COc1cccc(NC(=O)CN(C)CC(=O)Nc2ccc3c(c2)OCO3)c1 | > 55.7 µg/mL
98 | Cc1ccc(C(=O)Nc2ccccc2C(=O)NCC2CCCO2)cc1 (stereo not given) | > 50.8 µg/mL
99 | Cn1c(=O)n(C)c2cc([N+](=O)[O-])c(N3CCNCC3)cc21 | > 43.7 µg/mL
100 | CC(C)Cn1c(N)cc(=O)n(C)c1=O | 22.2 µg/mL (≈ 113 µM)
101 | CN(C)/C(=N\S(=O)(=O)c1ccc(Cl)cc1)c1ccc(F)cc1 | > 51.1 µg/mL
102 | CC(C)(C)N1CC(C(=O)Nc2ccc(S(N)(=O)=O)cc2)CC1=O (stereo not given) | > 50.9 µg/mL
103 | Cc1ccc(S(=O)(=O)NC(=O)c2ccccc2C)cc1 | > 43.4 µg/mL
104 | COc1ccc(CCN=Cc2ccccc2O)cc1OC | > 42.8 µg/mL
105 | CNC(=O)CCN(Cc1ccco1)S(=O)(=O)c1ccc(OC)c(OC)c1 | 56.2 µg/mL (≈ 147 µM)
106 | Cc1ccc(OCCn2ccnc2)c(C)c1 | 22.8 µg/mL (≈ 105 µM)
107 | S=C1NCN(Cc2ccco2)CN1Cc1ccco1 | 40.3 µg/mL (≈ 145 µM)
108 | COC(=O)c1sccc1NC(=O)Nc1cc(OC)ccc1OC | 10.3 µg/mL (≈ 30.6 µM)
109 | Cc1cc(F)ccc1NC(=S)NC1CCCC1 | 37.2 µg/mL (≈ 147 µM)
110 | O=c1[nH]c(/C=C/c2ccc(Br)cc2)nc2ccccc12 | 0.8 µg/mL (≈ 2.45 µM)
111 | COc1ccccc1/C=C1\SC(N2CCC(C)CC2)=NC1=O | 35 µg/mL (≈ 111 µM)
112 | Cc1ccc(OC(C)C(=O)Nc2ccc(Cl)cn2)c([N+](=O)[O-])n1 (stereo not given) | 18.7 µg/mL (≈ 55.5 µM)
113 | COc1nc(-c2ccccc2)ncc1S(=O)(=O)c1ccccc1 | < 0.3 µg/mL
114 | N#Cc1c(-c2ccccc2)nc(SCc2ccc(Cl)cc2)[nH]c1=O | 51.9 µg/mL (≈ 147 µM)
115 | O=C(Cc1ccc(S(=O)(=O)N2CCCC2)s1)Nc1cccc([N+](=O)[O-])c1 | 20.7 µg/mL (≈ 52.3 µM)
116 | Cc1csc(NC(=O)CCCc2cccs2)n1 | 28.2 µg/mL (≈ 106 µM)
117 | CCOC(=O)CN(C(=O)c1ccccc1[N+](=O)[O-])C(C)(C)C | 43.7 µg/mL (≈ 142 µM)
118 | Cc1ccc(CNC(=O)C2CCC(=O)N2C(C)C)cc1 (stereo not given) | > 41.2 µg/mL
119 | CCc1nonc1NC(=O)c1oc2ccccc2c1C | 3.1 µg/mL (≈ 11.4 µM)
120 | CCOC(=O)c1oc2ccc(Cl)cc2c1NC(C)=O | 4.8 µg/mL (≈ 17 µM)
